Experimental data as given in PMC6562610, “Inhibition of Hedgehog Signaling in Fibroblasts, Pancreatic, and Lung Tumor Cells by Oxy186, an Oxysterol Analogue with Drug-Like Properties” (Cells, 2019).
Entries after “also recorded” stand apart in the source; their conditions may differ. Like-named read-outs stand apart in the source and are kept apart here.

Columns and labels:
[1] = tested on: Gli1 transcriptional activity in NIH3T3-E1 cells; test: Gli responsive luciferase reporter trans-activated by exogenous Gli1; type: cell-based, mouse; conditions: 72 h
Description: (§1) NIH3T3-E1 and Sufu^−/− cells cultured in 24-well plates at 90% confluence were transiently transfected with 0.1 µg of Gli response-element reporter (pGL3b-8xGli-Luciferase) plasmid, and 10 ng of pTK-Renilla-Luciferase plasmid with or without co-transfection with 10 ng of Gli1 overexpression vector, pSRα-Gli1, as previously described using Lipofectamine LTX Plus transfection reagent (Invitrogen). Twenty-four h after transfection, cells were treated with test agents for 72 h. Then the firefly and Renilla luciferase activities were measured using a dual luciferase kit (Promega, Madison, WI, USA) and a GloMax-96 Microplate Luminometer. The firefly luciferase activities were normalized to the Renilla luciferase activities. Data are reported as the mean of triplicate determinations ± SD.
(§2) Figure 5 Oxy186 acts downstream of Smo. (a) Sufu^−/− mouse embryonic fibroblast (MEF) cells were treated with DMEM containing 10% FBS in the presence or absence of Oxy186 (10 µM). After 72 h, RNA was extracted and analyzed by Q-RT-PCR for the expression of Hh target genes Gli1, Ptch1, and Hip, normalized to Oaz1 expression. […] Luciferase activity was measured and normalized to the Renilla luciferase activity. […]

[2] = tested on: endogenous Gli activity in Sufu-/- cells; test: Gli responsive luciferase reporter in Sufu-/- cells; type: cell-based, mouse; conditions: 10 µM, 72 h
Description: as §1, §2

[3] = tested on: Gli1 expression in H2030 cells; test: Inhibition of Gli1 expression in H2030 cells, Q-RT-PCR; type: cell-based, human; conditions: 10 µM, 72 h
Description: (§3) NIH3T3-E1 fibroblasts were obtained from ATCC (Manassas, VA) and cultured, as previously described. CAPAN-1 and PANC-1 human pancreatic cancer cells were obtained from ATCC and cultured in Dulbecco’s Modified Eagle Medium (DMEM) containing 10% heat-inactivated fetal bovine serum (FBS) (Hyclone Laboratories, Logan, UT, USA) and antibiotics, as previously described. The human lung cancer cell lines A549 and H2030 were obtained from ATCC and cultured in RPMI-1640 containing 10% FBS. The human hepatoma cell line HepG2 was obtained from ATCC and cultured in DMEM containing 10% FBS. Mouse embryonic fibroblasts (MEFs) from suppressor of fused (Sufu) null mice (Sufu^−/−) were provided by Dr. Philip Beachy of Stanford University and cultured in DMEM containing 10% FBS. Gant61, SB431542 and vismodegib (GDC0449) were obtained from Cayman Chemical, HPI-1 was obtained from Abcam. For experiments, cells were treated in a medium containing 5% FBS.
(§4) Total RNA was extracted with the RNeasy Plus Mini Kit from Qiagen, according to the manufacturer’s instructions. One microgram of RNA was reverse-transcribed using an iScript Reverse Transcription Supermix from Bio-Rad, to make single-stranded cDNA. The cDNAs were then mixed with Qi SYBR Green Supermix (Bio-Rad, Hercules, CA, USA) for quantitative RT-PCR assay using a Bio-Rad I-cycler IQ quantitative thermocycler. All PCR samples were prepared in triplicate wells in a 96-well plate. […] Fold changes in gene expression were calculated using the ΔΔCt method. […]
(§5) Figure 4 Inhibition of Gli and Shh expression in (a) PDAC (PANC-1) and (b,c) human lung cancer cells (A549 and H2030, respectively) by Oxy186. Cells were treated with the compounds as indicated in DMEM or RPMI 1640 containing 5% FBS for (a) 48 or (b,c) 72 hours, then RNA was extracted and analyzed by Q-RT-PCR for the expression of Gli1 and normalized to GAPDH expression. (d) CAPAN-1 cells were treated with the compounds, as indicated, in DMEM containing 5% FBS for 72 h, then RNA was extracted and analyzed by Q-RT-PCR for the expression of Shh and normalized to GAPDH expression. […]

[4] = Pharmacokinetic study in mice, single oral dose; type: in vivo, balb/c mice; conditions: for Cmax: read-out: maximum serum concentration (Cmax)
Description: In an initial assessment of the drug-like properties of Oxy186, we performed a pharmacokinetic (PK) study in mice. Oxy186, formulated in 4% ethanol, 15% DMSO, and 81% corn oil, was administered to balb/c mice by oral gavage as a single dose of 50 mg/kg.
Figure 8 Drug-like properties of Oxy186. (a) A single dose of Oxy186 at 50 mg/kg, formulated in 4% ethanol/ 15% DMSO/ 81% corn oil, was administered to balb/c mice by oral gavage. Plasma samples were taken at 10 min, 30 min, 1, 2, 4, 6, 8, and 24 h, followed by LC/MS analysis of the plasma. (b) Evolution of Oxy186 from parent compound Oxy16 and their drug-like properties.

[5] = tested on: Gli1 expression in A549 cells; test: Inhibition of Gli1 expression in A549 cells, Q-RT-PCR; type: cell-based, human; conditions: 10 µM, 72 h
Description: as §3, §4, §5

[6] = Metabolic stability in mouse liver microsomes; type: in vitro ADME
[7] = mouse, plasma, balb/c mice, 50 mg/kg, oral gavage, single dose

C[C@]12CC[C@H](O)C[C@@H]1CC[C@@H]1[C@@H]2CC[C@@]2(C)[C@H]1CC[C@@H]2[C@](C)(O)CCc1ccc(F)cc1 [Oxy186, (3S,5S,8R,9S,10S,13S,14S,17S)-17-((R)-4-(4-fluorophenyl)-2-hydroxybutan-2-yl)-10,13-dimethylhexadecahydro-1H-cyclopenta[a]phenanthren-3-ol]
Inhibition of Gli responsive luciferase reporter trans-activated by over expressed exogenous Gli1 [1]: significantly inhibited | Inhibition of Gli responsive luciferase reporter activity (endogenous Gli) [2]: significantly inhibited | Inhibition of expression of Gli1 [3]: significantly inhibited | In vivo availability / stability (Figure 8b summary) ([4]; Figure 8b drug-like properties summary): Orally available in mice | Tolerability ([4]; balb/c mice, 50 mg/kg, oral gavage, single dose): well tolerated; also recorded: no overt signs of toxicity | Tmax [4, 7]: 2 h | AUC ([4]; mouse, plasma, balb/c mice, 50 mg/kg, oral gavage, single dose, read-out: area under the curve (AUC)): 10500 ng·h/mL | Cmax [4, 7]: 1490 ng/mL | half-life ([4]; mouse, plasma, balb/c mice, 50 mg/kg, oral gavage, single dose, read-out: oral half-life (T1/2) (converted)): 4.5 h | AUC ([4]; mouse, plasma, balb/c mice, 50 mg/kg, oral gavage, converted from ng/mL, read-out: area under the curve (AUC), molar): 23.7 µM·h | Cmax ([4]; mouse, plasma, balb/c mice, 50 mg/kg, oral gavage, converted with MW = 442.32): 3.4 µM | Inhibition of expression of Gli1 [5]: significantly inhibited | remaining at 1 h ([6]; 60 min, read-out: MLM, % Remaining after 60 min): 50% | half-life ([6]; read-out: MLM, Half-Life): 1 h
